Experimental data reported in ChEMBL document CHEMBL1134029, “Heterocyclic derivatives of 2-(3,5-dimethylphenyl)tryptamine as GnRH receptor antagonists” (Bioorg Med Chem Lett, 2001).
pIC50: −log10 of the molar value.

Assays:
[1] = target: T1, Gonadotropin-releasing hormone receptor (Homo sapiens, UniProt P30968); test: Inhibitory activity evaluated against human Gonadotropin-releasing hormone receptor
T1 sequence (P30968 whole entry): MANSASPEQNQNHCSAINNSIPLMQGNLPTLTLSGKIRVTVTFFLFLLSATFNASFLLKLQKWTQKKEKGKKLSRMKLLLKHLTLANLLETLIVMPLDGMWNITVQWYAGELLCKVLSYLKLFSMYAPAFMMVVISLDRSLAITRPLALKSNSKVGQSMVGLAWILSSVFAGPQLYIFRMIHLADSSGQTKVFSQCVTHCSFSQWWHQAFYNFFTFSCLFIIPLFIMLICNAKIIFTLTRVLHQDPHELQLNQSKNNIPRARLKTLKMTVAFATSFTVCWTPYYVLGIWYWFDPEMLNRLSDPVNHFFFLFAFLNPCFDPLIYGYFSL

[2] = target: T2, Gonadotropin-releasing hormone receptor (Rattus norvegicus, UniProt P30969); test: Inhibition of rat gonadotropin-releasing hormone receptor
T2 sequence (P30969 whole entry): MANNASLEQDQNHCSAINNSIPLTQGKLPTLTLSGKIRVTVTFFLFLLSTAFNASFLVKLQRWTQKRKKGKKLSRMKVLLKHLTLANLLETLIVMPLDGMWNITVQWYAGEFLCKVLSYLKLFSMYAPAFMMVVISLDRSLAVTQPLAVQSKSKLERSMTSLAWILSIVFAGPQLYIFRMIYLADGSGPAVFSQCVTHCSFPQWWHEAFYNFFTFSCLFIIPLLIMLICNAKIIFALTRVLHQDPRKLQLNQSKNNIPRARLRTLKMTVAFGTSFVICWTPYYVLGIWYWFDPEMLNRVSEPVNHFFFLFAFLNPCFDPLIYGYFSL

| SMILES | pIC50 [1] | pIC50 [2] |
| --- | --- | --- |
| Cc1cc(C)cc(-c2[nH]c3ccccc3c2CCNCCCCc2ccc(O)cc2)c1 | 6.45 | 7.57 |
| Cc1cc(C)cc(-c2[nH]c3ccccc3c2CCNCCCCc2ccncc2)c1 | – | 7.80 |
| Cc1cc(C)cc(-c2[nH]c3ccccc3c2CCNCCCCc2cnc3ccccc3c2)c1 | – | 7.44 |
| Cc1cc(C)cc(-c2[nH]c3ccccc3c2CCNCCCc2cccnc2)c1 | – | 6.70 |
| Cc1cc(C)cc(-c2[nH]c3ccccc3c2CCNCCCCc2ccccn2)c1 | – | 6.35 |
| Cc1cc(C)cc(-c2[nH]c3ccccc3c2CCNCCCCc2ccc(N)nc2)c1 | – | 7.39 |
| Cc1cc(C)cc(-c2[nH]c3ccccc3c2CCNCc2ccncc2)c1 | – | 5.05 |
| Cc1cc(C)cc(-c2[nH]c3ccccc3c2CCNCCCCc2ccc(NS(C)(=O)=O)cc2)c1 | 6.77 | 8.15 |
| Cc1cc(C)cc(-c2[nH]c3ccccc3c2CCNCCCCCc2cccnc2)c1 | – | 7.30 |
| CC(=O)Nc1ccc(CCCCNCCc2c(-c3cc(C)cc(C)c3)[nH]c3ccccc23)cn1 | – | 6.92 |
| COc1ccc(CCCCNCCc2c(-c3cc(C)cc(C)c3)[nH]c3ccccc23)cn1 | – | 7.05 |
| Cc1cc(C)cc(-c2[nH]c3ccccc3c2CCNCCCCc2cnc[nH]2)c1 | – | 6.35 |
| Cc1cc(C)cc(-c2[nH]c3ccccc3c2CCNCCCCCc2ccncc2)c1 | – | 6.82 |
| Cc1cc(C)cc(-c2[nH]c3ccccc3c2CCNCCc2cccnc2)c1 | – | 6.70 |
| Cc1cc(C)cc(-c2[nH]c3ccccc3c2CCNCc2cccnc2)c1 | – | 5.35 |
| Cc1cc(C)cc(-c2[nH]c3ccccc3c2CCNCCCCc2ccc3c(n2)NCCC3)c1 | – | 5.90 |
| Cc1cc(C)cc(-c2[nH]c3ccccc3c2CCNCCCCc2cccnc2)c1 | – | 7.40 |
| Cc1cc(C)cc(-c2[nH]c3ccccc3c2CCNCCCCc2ccc(=O)[nH]c2)c1 | – | 7.24 |
| Cc1cc(C)cc(-c2[nH]c3ccccc3c2CCNCCc2ccccn2)c1 | – | 5.66 |
| Cc1cc(C)cc(-c2[nH]c3ccccc3c2CCNCCCCc2ccc(NS(C)(=O)=O)nc2)c1 | – | 7.35 |
| Cc1cc(C)cc(-c2[nH]c3ccccc3c2CCNCCCc2ccncc2)c1 | – | 6.68 |
| Cc1cc(C)cc(-c2[nH]c3ccccc3c2CCNCc2ccccn2)c1 | – | < 5.00 |
| Cc1cc(C)cc(-c2[nH]c3ccccc3c2CCNCCc2ccncc2)c1 | – | 6.80 |
| Cc1cc(C)cc(-c2[nH]c3ccccc3c2CCNCCCCc2cncnc2)c1 | – | 6.57 |
